# Laboratory results: patent EP4671262A1, “NOVEL PEPTIDE EXHIBITING SKIN CONDITION IMPROVEMENT ACTIVITY AND COSMETIC COMPOSITION CONTAINING SAME” (Daebong LS Co., Ltd., priority 2023, dated 2024)
# What was measured:
# B16F10 cells = test: Melanin synthesis inhibition in α-MSH-stimulated melanocytes; assay type: cell-based, Mouse; details: 72 hours, α-MSH alone = 100
# Description: Mouse-derived melanocytes (B16F10 cells) were obtained from the American Type Culture Collection (ATCC) and used. The cells were cultured in Dulbecco's Modified Eagle's Medium (DMEM) supplemented with 1% penicillin-streptomycin and 10% fetal bovine serum (FBS) at 37 °C in a 5% CO2 incubator, and subcultured every 3 to 4 days.
# B16F10 cells were seeded at 6.0 × 10^4 cells/well in a 6-well plate and cultured for 24 hours at 37 °C in a 5% CO2 incubator. The culture medium was then replaced with phenol red-free, serum-free DMEM, followed by treatment with α-MSH, a melanin production-inducing hormone, and the peptide from the above Preparation Example at concentrations ranging from 1 to 100 µM. The cells were incubated for 72 hours, after which they were collected and lysed with 1 N NaOH in an 80 °C heating block to dissolve intracellular melanin. The absorbance of the resulting solution was measured at 490 nm. The control group was treated with arbutin at a concentration of 500 µg/mL.
# NHDF cells = test: Procollagen Type I Peptide (PIP) production, EIA of culture supernatant; assay type: cell-based, Human; details: 24 hours, untreated group = 100
# Description: Normal Human Dermal Fibroblasts (NHDF) were obtained from Lonza (Lonza Walkersville, Inc.) and cultured in FBM (Fibroblast Basal Medium) supplemented with 0.1% hFGF-B, insulin, GA-1000, and 2% FBS at 37°C in a 5% CO2 incubator. Subculture was performed every 2 to 3 days.
# NHDF cells were seeded at 2.0 × 10^4 cells/well in a 24-well plate and incubated for 24 hours at 37°C in a 5% CO2 incubator. After incubation, the culture medium was replaced with serum-free FBM, and the peptide prepared in the above Example was applied at concentrations of 1-100 µM, followed by incubation for 24 hours. The supernatant from each experimental group was collected, and the amount of procollagen released into the medium was measured. The positive control group was treated with ascorbic acid at a concentration of 0.001 v/v%. Measurement of procollagen levels was performed using a Procollagen Type I Peptide (PIP) EIA Kit (Takara Biomedical Co.) according to the manufacturer's protocol. The quantitative results of procollagen type I peptide production following treatment with the peptide of the Example are shown in Table 2 and Fig. 3.
# HaCaT cells = test: Hyaluronic acid (HA) production, ELISA of culture supernatant; assay type: cell-based, human; details: 24 hours, untreated group = 100
# Description: The HaCaT human keratinocyte cell line was obtained from Cell Line Service GmbH (Germany). The cells were cultured in DMEM containing 1% penicillin-streptomycin and 10% fetal bovine serum (FBS) at 37°C in a 5% CO2 incubator, and subculture was performed every 2 to 3 days.
# HaCaT cells were seeded at 1.0 × 10^5 cells/well in a 24-well plate and incubated for 24 hours at 37°C in a 5% CO2 incubator. After incubation, the culture medium was replaced with serum-free DMEM, and the peptide prepared in the above Example was applied at concentrations of 50-200 µM, followed by incubation for 24 hours. The supernatant from each experimental group was collected, and the amount of hyaluronic acid (HA) released into the medium was measured. The positive control group was treated with N-acetylglucosamine at a concentration of 10 mM. Measurement of hyaluronic acid production was conducted using a Hyaluronic Acid ELISA Kit (Cusabio Biotechnology Co., Ltd.) following the manufacturer's protocol.
compound,measurement,setting,value
"OC[C@H]1O[C@@H](Oc2ccc(O)cc2)[C@H](O)[C@@H](O)[C@@H]1O [Arbutin, arbutin]",Melanin production (%),B16F10 cells; 500 µg/mL (control) with α-MSH (200 nM),59.6±0.8%
"O=C1O[C@H]([C@@H](O)CO)C(O)=C1O [Asc.A, ascorbic acid]",Procollagen production (%),NHDF cells; 10 µg/mL (positive control),159.45±3.8%
"CC(=O)N[C@H]1C(O)O[C@H](CO)[C@@H](O)[C@@H]1O (stereo partly shown) [NAG, N-acetylglucosamine]",Hyaluronic acid production (%),HaCaT cells; 10 mM (positive control),125.52±1.18%
Ala-Ala-Gln-Pro-Arg (AAQPR; printed: Ala-Ala-Gln-Pro-Arg),Melanin production (%),B16F10 cells; 1 µM with α-MSH (200 nM),100.86±4.32%
same,Melanin production (%),B16F10 cells; 10 µM with α-MSH (200 nM),89.62±2.95%
same,Melanin production (%),B16F10 cells; 100 µM with α-MSH (200 nM),79.76±4.18%
same,Procollagen production (%),NHDF cells; 1 µM,105.45±3.15%
same,Procollagen production (%),NHDF cells; 10 µM,129.75±9.74%
same,Procollagen production (%),NHDF cells; 50 µM,132.64±13.74%
same,Procollagen production (%),NHDF cells; 100 µM,134.92±1.3%
same,Hyaluronic acid production (%),HaCaT cells; 50 µM,107.14±1.08%
same,Hyaluronic acid production (%),HaCaT cells; 100 µM,130.93±0.59%
same,Hyaluronic acid production (%),HaCaT cells; 200 µM,136.91±6.87%
